Here are results for 4 compounds from ChEMBL document CHEMBL1208744, “Petiolins J-M, prenylated acylphloroglucinols from Hypericum pseudopetiolatum var. kiusianum” (Bioorg Med Chem Lett, 2010).

Experiment [1] deals with L1210. As to the kind of experiment: Cytotoxicity against mouse L1210 cells. It counts as functional, cell-based.
Experiment [2] has as its system KB. Briefly: Cytotoxicity against human KB cells. It counts as functional. Particulars: read-out: MIC.
Experiment [3] has as its system Micrococcus luteus. As to the kind of experiment: Antimicrobial activity against Micrococcus luteus. It counts as functional.
The subject of experiment [4] is Cryptococcus neoformans. Briefly: Antimicrobial activity against Cryptococcus neoformans. It counts as functional.
For experiment [5], the system named is Trichophyton mentagrophytes. Briefly: Antimicrobial activity against Trichophyton mentagrophytes. The experiment is classed as functional.

≈ marks a conversion by molar mass, not a printed value. Bounds are passed on as bounds.

Compound `CC(C)=CCC[C@](C)(O)[C@H]1C[C@@]2(CC=C(C)C)C(=O)C(C)(C)C(=O)C(C(=O)C(C)C)=C2O1` [PETIOLIN M] gave an IC50 in experiment [1] of more than 10 µg/mL. Also, the cytotoxic concentration in experiment [2] is more than 10 µg/mL.
In turn, `CCC(C)C(=O)C1=C2O[C@@H]([C@@](C)(O)CCC=C(C)C)C[C@]2(CC=C(C)C)C(=O)C(C)(C)C1=O` (stereo partly specified) [PETIOLIN L] had an IC50 in experiment [1] of more than 10 µg/mL. For the same compound, the cytotoxic concentration in experiment [2] is more than 10 µg/mL.
Turning to `CC(C)=CCC[C@]1(C)Oc2c(c(O)c(C)c(O)c2C(=O)C(C)C)C[C@H]1O` [PETIOLIN J], the MIC came out at 8 µg/mL (≈ 22.1 µM) in experiment [3], 16 µg/mL (≈ 44.1 µM) in experiment [4] and 16 µg/mL (≈ 44.1 µM) in experiment [5]. In experiment [1], this compound had an IC50 of more than 10 µg/mL. Besides, the cytotoxic concentration in experiment [2] is more than 10 µg/mL.
Compound `Cc1c(O)c(C(=O)C(C)C)c2c3c1OC(C)(C)[C@@H]1CC[C@@](C)(C[C@@H]31)O2` [PETIOLIN K] had an IC50 in experiment [1] of more than 10 µg/mL. In experiment [2], the cytotoxic concentration is more than 10 µg/mL.

In general, IC50 refers to the concentration needed to halve the response being measured. The low end stands for higher potency, the high end for lower potency. As usually defined, the MIC is the lowest concentration found to suppress growth. Higher therefore signals weaker potency.
